“Also recorded” adds a separate entry of the source. Counter-ions that a name gives are not always drawn. Each block holds one compound with its values, some of them ahead of it.
Assays:
[1] = test system: rps29−/− zebrafish embryos; assay: flk1 whole-mount in situ hybridization (intersegmental vessel staining) in rps29−/− embryo chemical screen; type: in vivo; settings: rps29−/− embryos treated from bud to 23 hpf, flk1 ISH at 24 hpf
Procedure: Fish were maintained under approved laboratory conditions.
(§1) Whole-mount in situ hybridization (ISH) was performed as described (Thisse and Thisse, 2008). Antisense probes were synthesized from digested plasmid. O-Dianisidine was performed as described previously (Paffett-Lugassy and Zon, 2005).

A549 cells [2] = assay: cell cycle status by flow cytometry (propidium iodide) in A549 cells; type: cell-based
Procedure: (§2) FIGS. 4A-4D show treatment with A-3 inhibits p53 and p21 nuclear localization upon rps19 knockdown.
(§3) A549 and CD34+ cells were infected with previously characterized lentiviral shRNA targeting RPS19 (Dutt et al., 2011). Unless otherwise noted, drugs were added one day post infection, and cells were collected for analysis 3-6 days post infection.

[3] = test system: rps29−/− zebrafish embryos; assay: head morphology scoring in rps29−/− embryo chemical screen; settings: 24 hpf
Procedure: Fish were maintained under approved laboratory conditions. Studies were performed on AB wildtype strains and hi2903, an insertional mutant in the first intron of ribosomal protein S29 (rps29). Embryos were subjected to chemicals diluted in E3. For screening, chemicals from ICCB Biomol Known Bioactive, Sigma, and Lopac libraries were tested at 1:300 dilutions from library stock. Compounds were tested in two independent experiments of 20 embryos each, so approximately 10 mutant embryos were scored per chemical. […] Nimodipine (Enzo) was diluted in DMSO and tested in doses from 1.5 to 20 μg/mL. SNAP (Cayman) was diluted in DMSO and tested in doses from 0.5 to 5 μg/mL. YS-035 (Sigma) was diluted in water and treated in doses from 0.8 to 8 μg/mL. Vinpocetine (Enzo) was diluted in ethanol and treated in doses from 0.3 to 3 μg/mL.
A screen was performed to identify chemicals that could rescue the endothelial and morphological defects of the rps29^−/− mutant embryo (FIG. 1A). Rps29^−/− fish were incrossed, and embryos were collected for treatment at bud stage (10 hpf). Embryos were treated from bud to 23 hpf with compounds of known bioactivity. After being scored for rescue of head morphology, embryos were fixed at 24 hpf for in situ hybridization of flk1 and rps29. Embryos without rps^29 staining (rps29^−/− mutants) were scored for rescue of flk1 intersegmental vessel staining.

A549 cells [4] = assay: flow cytometry for annexin and propidium iodide in A549 cells; type: cell-based
Procedure: as §2, §3

rps29 mutant embryos = assay: benzidine staining for hemoglobin levels in rps29 mutant embryos; type: in vivo, zebrafish; settings: benzidine staining at 40 hpf
Procedure: Fish were maintained under approved laboratory conditions. […] .
as §1

[5] = test system: calmodulin dependent PDE1; settings: cited from earlier work
CD34+ cells = assay: p21 protein by FACS in CD34+ cells with RPS19 knockdown in erythroid proliferation media; type: cell-based, human
Procedure: as §3
(§4) For flow cytometry based measurement of protein levels, cells were fixed in 2% paraformaldehyde for 15 minutes at 37° C., and methanol was added for overnight incubation at 4° C. Cells were incubated for one hour in 1:100 diluted p21 primary antibody (Cell Signaling 12D1) followed by one hour in conjugated secondary antibody and 1:50 diluted p53-conjugated antibody (Cell Signaling 1C12). Immunofluorescence staining was performed as previously described (Dutt et al., 2011).
As DBA is a hematopoietic disorder, the inventors next tested the effects of A-3 in CD34+ cells with RPS19 knockdown by siRNA. In an in vitro system that mimics the differentiation of erythrocytes in vivo, the inventors knocked down RPS19 using shRNA. […] When RPS19 is reduced during erythroid differentiation, p21 mRNA levels increased about 6-fold compared to luciferase-infected controls and the transferrin receptor, CD71+ and a marker that is first detected at the proerythroblast stage, glycophorin A (GPA), are reduced 40% and 50%, respectively (Dutt et al., 2011).

A549 cells [6] = assay: immunofluorescence staining for p53 and p21 nuclear localization in A549 cells with RPS19 knockdown; type: cell-based; settings: for p53 nuclear staining intensity: p=0.00028 for A-3; for p53 nuclear accumulation: A549 cells
Procedure: as §3, §4
Immunofluorescence staining for p53 and p21 was performed on chemically treated cells (FIG. 4A). For 10-15 cells per condition, average nuclear and cytoplasmic intensity was determined using ImageJ.

A549 cells [7] = assay: flow cytometry of p53 and p21 protein in A549 cells with RPS19 shRNA; type: cell-based; settings: for p21 protein level / p53 protein level: A549, RPS19 shRNA, drug 24 hours post infection, analyzed 3-6 days post infection
Procedure: as §3, §4
The inventors next tested the effect of calmodulin inhibitors in A549 cells, where p53 is not mutated and is induced upon ribosomal protein knockdown (Fumagalli et al., 2009). A549 cells were infected with control or RPS19 shRNA and treated with A-3 or TFP 24 hours post infection. Cells were analyzed 3-6 days post infection. […] In addition, removal of drug leads to an increase in p21 levels within 24 hours (data not shown).

[8] = test system: human T cells subjected to ionizing radiation; settings: read-out: EC50, prevention of apoptosis; cited from earlier work
Human CD34+ cells = assay: in vitro erythroid differentiation assay of CD34+ cells with RPS19 shRNA; type: cell-based; parameters: p21 mRNA: dose or concentration left out as unconfirmed; settings: for rescue of CD71+ expression: day 10 of erythroid differentiation, flow cytometry
Procedure: as §3
As DBA is a hematopoietic disorder, the inventors next tested the effects of A-3 in CD34+ cells with RPS19 knockdown by siRNA. In an in vitro system that mimics the differentiation of erythrocytes in vivo, the inventors knocked down RPS19 using shRNA. Human CD34+ cells are expanded in culture for 4 days and then infected with RPS19 shRNA or luciferase control shRNA lentiviral construct, selected with puromycin for 2 days and on day 7, the media is replaced with media containing high EPO to initiate erythroid differentiation (FIG. 6A). When RPS19 is reduced during erythroid differentiation, p21 mRNA levels increased about 6-fold compared to luciferase-infected controls and the transferrin receptor, CD71+ and a marker that is first detected at the proerythroblast stage, glycophorin A (GPA), are reduced 40% and 50%, respectively (Dutt et al., 2011).

[9] = test system: ion channel currents (calcium, potassium and sodium channels); settings: in vitro experiments and in animals; cited from earlier work
[10] = cited from earlier work
[11] = A549, RPS19 knockdown, ImageJ, 10-15 cells per condition

SMILES: CC(=O)N[C@@H](C(=O)O)C(C)(C)SN=O (racemic) [SNAP]
rescue of flk1 expression / vasculature defect [1]: rescued flk1 intersegmental vessel staining

annexin V positivity (A549 cells [4]): increased annexin V positivity
SMILES: NCCNS(=O)(=O)c1cccc2c(Cl)cccc12 [A-3]
effect on RPS19 shRNA induced cell cycle arrest (A549 cells [2]): no obvious effect
rescue of head morphology [3]: rescued the morphology
rescue of flk1 expression / vasculature defect [1]: did not rescue the vasculature
rescue of hemoglobin levels (rps29 mutant embryos): rescue hemoglobin levels
inhibition of calmodulin dependent PDE1 compared with other calmodulin-dependent enzymes [5]: less effective inhibitor
concentration decreasing the levels of p21 in CD34+ cells (CD34+ cells; CD34+ cells in an erythroid cell population in vitro): 1 to 50 µM
p21 protein (CD34+ cells; CD34+ cells, RPS19 knockdown, erythroid proliferation media): decrease p21 protein
p53 nuclear staining intensity (A549 cells [6]; [11]): decreased
p21 nuclear staining intensity (A549 cells [6]; A549, RPS19 knockdown, ImageJ, 10-15 cells per condition, p=0.007 for A-3): decreased
p53 nuclear accumulation (A549 cells [6]): reversed p53 nuclear accumulation
p21 protein level (A549 cells [7]): statistically significant decrease; also recorded: decrease of p21 protein
p53 protein level (A549 cells [7]): still increased; also recorded: without a matching decrease of p53
time of treatment until p21 protein levels begin to decrease (A549 cells [7]; A549, shorter treatment windows (FIG. 3E-3F, timecourse of A-3 treatment)): ≤ 1.5 h

SMILES: Cl.NCCCCCCCCCCNS(=O)(=O)c1cccc2c(Cl)cccc12 [A-7]
rescue of flk1 expression / vasculature defect [1]: rescue the vasculature defect

SMILES: NC(=O)c1ccc2[nH]c(-c3ccc(Oc4ccc(Cl)cc4)cc3)nc2c1 [BML-277]
EC50 [8]: 3 to 7.6 µM
rescue of CD71+ levels (Human CD34+ cells; inhibitor panel against individual calmodulin-dependent enzymes): rescued CD71+ levels
p53 nuclear accumulation (A549 cells [6]): prevented nuclear accumulation of p53

SMILES: CC1(CN2CCC(n3c(=O)[nH]c4ccccc43)CC2)OCc2ccccc2-n2cccc21 (centres unmarked) [CGS-9343B, zaldaride maleate]
rescue of flk1 expression / vasculature defect [1]: rescued flk1 expression

annexin V positivity (A549 cells [4]): increased annexin V positivity
SMILES: CN1CCN(CCCN2c3ccccc3Sc3ccc(C(F)(F)F)cc32)CC1 [TFP, 10-[3-(4-methylpiperazin-1-yl)propyl]-2-(trifluoromethyl)-10H-phenothiazine]
effect on RPS19 shRNA induced cell cycle arrest (A549 cells [2]): no obvious effect
rescue of blood cell differentiation (Human CD34+ cells): can rescue blood cell differentiation
p21 mRNA (Human CD34+ cells; RPS19 shRNA, quantitative PCR): decreased p21 mRNA to control levels
rescue of CD71+ expression (Human CD34+ cells; RPS19 shRNA): rescue CD71+ expression
concentration restoring the percentage of CD71+ cells (Human CD34+ cells; erythroid cell population in vitro): 5 to 20 µM
rescue of flk1 expression / vasculature defect [1]: rescued flk1 expression
p53 nuclear staining intensity (A549 cells [6]; [11]): same effect was seen
p53 nuclear accumulation (A549 cells [6]): reversed p53 nuclear accumulation
p21 protein level (A549 cells [7]): statistically significant decrease; also recorded: decrease of p21 protein
p53 protein level (A549 cells [7]): still increased; also recorded: without a matching decrease of p53

SMILES: CCOC(=O)C1=C[C@]2(CC)CCCN3CCc4c(n1c1ccccc41)[C@@H]32 [Vinpocetine, ethyl apovincaminate]
rescue of flk1 expression / vasculature defect [1]: a hit in the screen

SMILES: Cl.NCCCCCCNS(=O)(=O)c1cccc2ccccc12 [W-5]
rescue of flk1 expression / vasculature defect [1]: rescue the vasculature defect

SMILES: Cl.NCCCCCCNS(=O)(=O)c1cccc2c(Cl)cccc12 [W-7, N-(6-Aminohexyl)-5-chloro-1-naphthalenesulfonamide hydrochloride]
rescue of flk1 expression / vasculature defect [1]: rescue flk1 expression
rescue of hemoglobin levels (rps29 mutant embryos): rescues hemoglobin levels

SMILES: COc1ccc(CCN(C)CCc2ccc(OC)c(OC)c2)cc1OC [YS-035]
rescue of flk1 expression / vasculature defect [1]: rescued the vasculature defect

SMILES: CC(C)COCC(CN(Cc1ccccc1)c1ccccc1)N1CCCC1 (centres unmarked) [bepridil]
IC50 for these processes [9]: low micromolar range

SMILES: OCCN1CCN(CCCN2c3ccccc3Sc3ccc(C(F)(F)F)cc32)CC1 [fluphenazine, 4-[3-[2-(trifluoromethyl)phenothiazin-10-yl]propyl]-1-piperazineethanol]
rescue of blood cell differentiation (Human CD34+ cells): can rescue blood cell differentiation
rescue of CD71+ expression (Human CD34+ cells; RPS19 shRNA): rescue CD71+ expression

SMILES: OCCN1CCN(CCCN2c3ccccc3Sc3ccc(Cl)cc32)CC1 [perphenazine, 4-[3-(2-Chloro-10H-phenothiazin-10-yl)propyl]-1-piperazineethanol]
oral bioavailability [10]: approximately 40%
rescue of blood cell differentiation (Human CD34+ cells): can rescue blood cell differentiation

— patent US11654149B2, “Calmodulin inhibitors for the treatment of ribosomal disorders and ribosomapathies” (CHILDREN'S MEDICAL CENTER CORPORATION, priority 2012, dated 2023)
